Patent publication US20240124469A1, “PIM KINASE INHIBITOR” (Hangzhou Biosun Pharmaceutical Co., Ltd., priority 2021, published 2024)

Legend:
Type in all cases: biochemical
[1] = molecular target: PIM1 (Homo sapiens (Human), UniProt P11309); test: PIM1 kinase activity test (Mobility shift assay)
Experimental: (§1) The efficacy of the compounds on the activity of PIM1/2/3 was tested by utilizing the Mobility shift assay method, with the specific procedures shown as follows: the test compounds were each dissolved in DMSO to be prepared into a 10 mM stock solution; for each of the test compounds, the stock solution was subjected to a 3-fold dilution from an initial concentration of 10 μM to obtain 10 concentrations.
(§2) PIM1, PIM2, and PIM3 (all three kinases are from Carna) were each prepared with 1× Kinase buffer into a kinase solution at a concentration that was 2.5 times the final concentration. 10 μL of kinase solution at a concentration that was 2.5 times the final concentration was added to each of the compound wells and the positive control well, and 10 μL of 1× Kinase buffer was added to the negative control well. The plate was centrifuged at 1000 rpm for 30 s, mixed well by shaking, and then incubated at room temperature for 10 min. A mixed solution of ATP and Kinase substrate 20 (from GL) at a concentration that was 25/15 times the final concentration was prepared with 1× Kinase buffer. The reaction was started by adding 15 μL of the mixed solution of ATP and Kinase substrate 20 at a concentration that was 25/15 times the final concentration. The 384-well plate was centrifuged at 1000 rpm for 30 s, mixed well by shaking, and then incubated at room temperature for 60 min. 30 μL of stop assay buffer was added to stop the kinase reaction. The plate was centrifuged at 1000 rpm for 30 s and mixed well by shaking. The conversion rates were read using Caliper EZ Reader.
(§3) The IC50 values of the test compounds for kinase activity were obtained by adopting a fitted dose-response curve of analytic software GraphPad Prism 5.

[2] = molecular target: PIM3 (Homo sapiens (Human), UniProt Q86V86); test: PIM3 kinase activity test (Mobility shift assay)
Experimental: as §1, §2, §3

[3] = molecular target: PIM2 (Homo sapiens (Human), UniProt Q9P1W9); test: PIM2 kinase activity test (Mobility shift assay)
PIM2, sequence (Q9P1W9 whole entry): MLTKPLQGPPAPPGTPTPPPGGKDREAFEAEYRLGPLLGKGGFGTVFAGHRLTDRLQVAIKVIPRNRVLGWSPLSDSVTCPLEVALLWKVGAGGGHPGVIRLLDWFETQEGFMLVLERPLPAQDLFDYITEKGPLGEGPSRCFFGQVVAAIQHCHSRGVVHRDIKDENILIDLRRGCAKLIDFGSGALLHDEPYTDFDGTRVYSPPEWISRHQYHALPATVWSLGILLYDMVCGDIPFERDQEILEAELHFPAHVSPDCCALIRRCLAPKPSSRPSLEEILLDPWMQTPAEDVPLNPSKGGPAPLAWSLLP
Experimental: as §1, §2, §3

PIM1, sequence (P11309 whole entry): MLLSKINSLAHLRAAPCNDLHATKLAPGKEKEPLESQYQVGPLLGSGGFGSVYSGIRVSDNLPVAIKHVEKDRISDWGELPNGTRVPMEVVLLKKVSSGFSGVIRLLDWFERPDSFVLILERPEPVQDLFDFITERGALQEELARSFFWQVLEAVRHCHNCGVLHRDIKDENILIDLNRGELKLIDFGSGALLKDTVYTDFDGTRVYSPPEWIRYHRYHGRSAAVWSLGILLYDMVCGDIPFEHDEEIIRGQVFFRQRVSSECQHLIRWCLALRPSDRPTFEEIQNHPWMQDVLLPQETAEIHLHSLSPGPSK

| IC50 [1] [nM] | IC50 [2] [nM] | IC50 [3] [nM] | SMILES |
| --- | --- | --- | --- |
| 100 to 1000 | 1000 to 10000 | > 10000 | O[C@H]1CCC[C@@H](Nc2ccc3ncc(-c4cccc(C(F)(F)F)c4)n3n2)CC1 (relative stereo) [Compound 23, cis-4-[[3-[3-(trifluoromethyl)phenyl]imidazo[1,2-b]pyridazin-6-yl]amino]cycloheptanol] |
| 10 to 100 | 100 to 1000 | 100 to 1000 | CC(C)(O)[C@H]1CC[C@H](Nc2ccc3ncc(-c4cccs4)n3n2)CC1 [Compound 14, 2-[(1r,4r)-4-[[3-(2-thienyl)imidazo[1,2-b]pyridazin-6-yl]amino]cyclohexyl]propan-2-ol] |
| 10 to 100 | 100 to 1000 | 1000 to 10000 | FC(F)(F)c1cccc(-c2cnc3ccc(NCC4CC5(CCNCC5)C4)nn23)c1 [Compound 15, N-(7-azaspiro [3.5]nonan-2-ylmethyl)-3-[3-(trifluoromethyl)phenyl]imidazo[1,2-b]pyridazin-6-amine] |
| 100 to 1000 | 100 to 1000 | 100 to 1000 | CC(C)(O)[C@H]1CC[C@H](Nc2ccc3ncc(-c4nccs4)n3n2)CC1 [Compound 17, 2-[(1r,4r)-4-[(3-thiazol-2-ylimidazo[1,2-b]pyridazin-6-yl)amino]cyclohexyl]propan-2-ol] |
| 10 to 100 | 100 to 1000 | 100 to 1000 | FC(F)(F)c1cccc(-c2cnc3ccc(NCC4CC5(CCNC5)C4)nn23)c1 (stereo not drawn) [Compound 18, N-(6-azaspiro[3.4]octan-2-ylmethyl)-3-(3-(trifluoromethyl)phenyl)imidazo[1,2-b]pyridazin-6-amine] |
| 2 to 10 | 10 to 100 | 100 to 1000 | FC(F)(F)c1cccc(-c2cnc3ccc(NC4CCCNCC4)nn23)c1 (stereo not drawn) [Compound 19, N-(azepan-4-yl)-3-[3-(trifluoromethyl)phenyl]imidazo[1,2-b]pyridazin-6-amine] |
| 100 to 1000 | 1000 to 10000 | 1000 to 10000 | O[C@H]1CCCC[C@@H](Nc2ccc3ncc(-c4cccc(C(F)(F)F)c4)n3n2)C1 [Compound 21, (1S,3R)-3-[[3-[3-(trifluoromethyl)phenyl]imidazo[1,2-b]pyridazin-6-yl]amino]cycloheptanol] |
| 10 to 100 | 1000 to 10000 | 1000 to 10000 | OC[C@@H]1CC[C@@H](Nc2ccc3ncc(-c4cccc(C(F)(F)F)c4)n3n2)CO1 [Compound 22, [(2S,5R)-5-[[3-[3-(trifluoromethyl)phenyl]imidazo[1,2-b]pyridazin-6-yl]amino]tetrahydropyran-2-yl]methanol] |
| 100 to 1000 | 100 to 1000 | 1000 to 10000 | FC(F)(F)c1cccc(-c2cnc3ccc(NC4CC5(CCNC5)C4)nn23)c1 (stereo not drawn) [Compound 24, N-(6-azaspiro [3.4]octan-2-yl)-3-(3-(trifluoromethyl)phenyl)imidazo[1,2-b]pyridazin-6-amine] |
| 100 to 1000 | 1000 to 10000 | > 10000 | OC[C@H]1CC[C@H](Nc2ccc3ncc(-c4cccc(C(F)(F)F)c4)n3n2)CO1 [Compound 25, [(2R,5S)-5-[[3-[3-(trifluoromethyl)phenyl]imidazo[1,2-b]pyridazin-6-yl]amino]tetrahydropyran-2-yl]methanol] |
| 10 to 100 | 100 to 1000 | 1000 to 10000 | CN1CCC2(CC1)CC(Nc1ccc3ncc(-c4cccc(C(F)(F)F)c4)n3n1)C2 [Compound 26, N-(7-methyl-7-azaspiro[3.5]nonan-2-yl)-3-(3-(trifluoromethyl)phenyl)imidazo[1,2-b]pyridazin-6-amine] |
| 10 to 100 | 100 to 1000 | 100 to 1000 | CN1CCCC(Nc2ccc3ncc(-c4cccc(C(F)(F)F)c4)n3n2)CC1 (stereo not drawn) [Compound 27, N-(1-methylazacycloheptan-4-yl)-3-[3-(trifluoromethyl)phenyl]imidazo[1,2-b]pyridazin-6-amine] |
| 10 to 100 | 1000 to 10000 | > 10000 | FC(F)(F)c1cccc(-c2cnc3ccc(NC4CC5(CCN(C6CC6)CC5)C4)nn23)c1 [Compound 30, N-(7-cyclopropyl-7-azaspiro [3.5]nonan-2-yl)-3-(3-(trifluoromethyl)phenyl)imidazo[1,2-b]pyridazin-6-amine] |
| 100 to 1000 | 1000 to 10000 | > 10000 | CC(C)(O)[C@H]1CC[C@H](Nc2ccc3nc(C(=O)O)c(-c4cccc(C(F)(F)F)c4)n3n2)CC1 [Compound 42, 6-(((1r,4r)-4-(2-hydroxypropan-2-yl)cyclohexyl)amino)-3-(3-(trifluoromethyl)phenyl)imidazo[1,2-b]pyridazine-2-carboxylic acid] |
| 100 to 1000 | > 10000 | > 10000 | CC(C)(O)[C@H]1CC[C@H](Nc2ccc3nc(C#N)c(-c4cccc(C(F)(F)F)c4)n3n2)CC1 [Compound 43, 6-(((1r,4r)-4-(2-hydroxypropan-2-yl)cyclohexyl)amino)-3-(3-(trifluoromethyl)phenyl)imidazo[1,2-b] pyridazine-2-carbonitrile] |
| 100 to 1000 | > 10000 | > 10000 | O[C@@H]1CCCC[C@@H](Nc2ccc3ncc(-c4cccc(C(F)(F)F)c4)n3n2)C1 [Compound 44, (1R,3R)-3-((3-(3-(trifluoromethyl)phenyl)imidazo[1,2-b]pyridazin-6-yl)amino)cycloheptanol] |
| 10 to 100 | 1000 to 10000 | 1000 to 10000 | O[C@@H]1CCC[C@@H](Nc2ccc3ncc(-c4cccc(C(F)(F)F)c4)n3n2)CC1 [Compound 45, (1R,4R)-4-((3-(3-(trifluoromethyl)phenyl)imidazo[1,2-b]pyridazin-6-yl)amino)cycloheptanol] |
| 10 to 100 | 1000 to 10000 | > 10000 | OC[C@H]1CC[C@H](Nc2ccc3ncc(-c4ccc(C(F)(F)F)s4)n3n2)CO1 [Compound 47, [(2R,5S)-5-[[3-[5-(trifluoromethyl)-2-thienyl]imidazo[1,2-b]pyridazin-6-yl]amino]tetrahydropyran-2-yl]methanol] |
| 10 to 100 | 100 to 1000 | > 10000 | CC(C)(O)[C@H]1CC[C@H](Nc2ccc3ncc(-c4cccc(-c5ccco5)c4)n3n2)CC1 [Compound 48, 2-((1r,4r)-4-((3-(3-(furan-2-yl)phenyl)imidazo[1,2-b]pyridazin-6-yl)amino)cyclohexyl)propan-2-ol] |
| 100 to 1000 | 1000 to 10000 | > 10000 | CN1CCC(CNc2ccc3ncc(-c4cccc(N(C)C)c4)n3n2)CC1 [Compound 50, 3-(3-(dimethylamino)phenyl)-N-((1-methylpiperidin-4-yl)methyl)imidazo[1,2-b]pyridazin-6-amine] |
| 100 to 1000 | > 10000 | 1000 to 10000 | CC(C)(O)[C@H]1CC[C@H](Nc2ccc3ncc(-c4cccc(S(C)(=O)=O)c4)n3n2)CC1 [Compound 51, 2-[(1r,4r)-4-[[3-(3-methylsulfonylphenyl)imidazo[1,2-b]pyridazin-6-yl]amino]cyclohexyl]propan-2-ol] |
